From PubChem BioAssay AID248 (DTP/NCI, 2004)
Where “and” joins values, the source holds several entries; their conditions need not be identical. Identical values can stand only once. Toxic doses and inconclusive results are not listed.

Test system: L1210 leukemia ip in BDF1 mice, survival T/C
Assay: NCI In Vivo Anticancer Drug Screen. Data for tumor model L1210 Leukemia (intraperitoneal) in B6D2F1 (BDF1) mice
Conditions: endpoint: mean survival time, higher = longer survival
In short: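 Tumor was transplanted into mice, which were then dosed with test compound or vehicle alone. Survival was recorded for each group, and the treated figure was expressed relative to the control figure.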

[1] = dose: 100.0 mg/kg/injection, schedule: Q01DX009 (ip), vehicle: saline with Tween-80
[2] = dose: 200.0 mg/kg/injection, schedule: Q01DX009 (ip), vehicle: saline with Tween-80
[3] = dose: 400.0 mg/kg/injection, schedule: Q01DX009 (ip), vehicle: saline with Tween-80
[4] = dose: 10.0 mg/kg/injection, schedule: Q01DX001 (ip), vehicle: saline
[5] = dose: 100.0 mg/kg/injection, schedule: Q01DX009 (ip), vehicle: saline
[6] = dose: 50.0 mg/kg/injection, schedule: Q01DX001 (ip), vehicle: saline with Tween-80
[7] = dose: 50.0 mg/kg/injection, schedule: Q04DX003 (ip), vehicle: saline with Tween-80
[8] = dose: 100.0 mg/kg/injection, schedule: Q01DX001 (ip), vehicle: saline with Tween-80
[9] = dose: 100.0 mg/kg/injection, schedule: Q04DX003 (ip), vehicle: saline with Tween-80
[10] = dose: 200.0 mg/kg/injection, schedule: Q01DX001 (ip), vehicle: saline with Tween-80
[11] = dose: 200.0 mg/kg/injection, schedule: Q04DX003 (ip), vehicle: saline with Tween-80
[12] = dose: 12.5 mg/kg/injection, schedule: Q01DX009 (ip), vehicle: saline
[13] = dose: 25.0 mg/kg/injection, schedule: Q01DX009 (ip), vehicle: saline
[14] = dose: 50.0 mg/kg/injection, schedule: Q01DX009 (ip), vehicle: saline
[15] = dose: 400.0 mg/kg/injection, schedule: Q01DX001 (ip), vehicle: saline with Tween-80
[16] = dose: 400.0 mg/kg/injection, schedule: Q04DX003 (ip), vehicle: saline with Tween-80

With `CCCCN1CCC(N)=NC1=O` the T/C (dose: 100.0 mg/kg/injection, schedule: Q01DX Z (ip), vehicle: saline) was 100 % of control and the T/C (dose: 200.0 mg/kg/injection, schedule: Q01DX Z (ip), vehicle: saline) was 100 % of control.
For `CC1CC2(C)C(CC1=O)CC(C)C1C3CCC(O)C3(C)CCC12` (stereo unspecified), the T/C [1] was 92 % of control, the T/C [2] was 96 % of control and the T/C [3] was 94 % of control.
With `O=C(COc1ccc(Cl)cc1)Nc1ccc(Cl)cc1C(=O)c1ccccc1` the T/C (dose: 50.0 mg/kg/injection, schedule: Q01DX009 (ip), vehicle: other) was 106 % of control, the T/C (dose: 100.0 mg/kg/injection, schedule: Q01DX009 (ip), vehicle: other) was 102 % of control and the T/C (dose: 200.0 mg/kg/injection, schedule: Q01DX009 (ip), vehicle: other) was 96 % of control and 87 % of control. The T/C (dose: 400.0 mg/kg/injection, schedule: Q01DX009 (ip), vehicle: other) was 89 % of control.
`O=S1(=O)C2CCCC1CCC2` was tested, and the T/C [4] was 98 % of control and 109 % of control, the T/C (dose: 40.0 mg/kg/injection, schedule: Q01DX001 (ip), vehicle: saline) was 102 % of control and the T/C (dose: 75.0 mg/kg/injection, schedule: Q01DX001 (ip), vehicle: saline) was 109 % of control. The T/C (dose: 150.0 mg/kg/injection, schedule: Q01DX001 (ip), vehicle: saline) was 100 % of control and the T/C (dose: 300.0 mg/kg/injection, schedule: Q01DX001 (ip), vehicle: saline) was 104 % of control.
`O=C1OCC(Cl)=C1Cl` was tested, and the T/C (dose: 6.25 mg/kg/injection, schedule: Q04DX003 (ip), vehicle: saline) was 101 % of control, the T/C (dose: 12.5 mg/kg/injection, schedule: Q04DX003 (ip), vehicle: saline) was 101 % of control and the T/C (dose: 25.0 mg/kg/injection, schedule: Q04DX003 (ip), vehicle: saline) was 103 % of control.
With `OC1OCC(Cc2ccc3c(c2)OCO3)C1Cc1ccc2c(c1)OCO2` (stereo unspecified) the T/C [5] was 91 % of control, the T/C (dose: 200.0 mg/kg/injection, schedule: Q01DX009 (ip), vehicle: saline) was 99 % of control and the T/C (dose: 400.0 mg/kg/injection, schedule: Q01DX009 (ip), vehicle: saline) was 88 % of control.
In the case of `O=C1OC(c2cccc(Cl)c2)=N/C1=C\c1ccc2c(c1)OCO2`, the T/C (dose: 100.0 mg/kg/injection, schedule: Q04DX002 (ip), vehicle: saline with Tween-80) is reported as 95 % of control, the T/C (dose: 200.0 mg/kg/injection, schedule: Q04DX002 (ip), vehicle: saline with Tween-80) is reported as 89 % of control and the T/C (dose: 400.0 mg/kg/injection, schedule: Q04DX002 (ip), vehicle: saline with Tween-80) is reported as 92 % of control.
For `ClCC1Oc2ccccc2O1`, the T/C (dose: 100.0 mg/kg/injection, schedule: Q01DX001 (ip), vehicle: other) was 101 % of control and the T/C (dose: 400.0 mg/kg/injection, schedule: Q01DX001 (ip), vehicle: other) was 97 % of control.
For `Cc1ccc(C)c(Cl)c1`, the T/C [6] was 95 % of control, the T/C [7] was 101 % of control and the T/C [8] was 97 % of control. For the same compound, the T/C [9] was 100 % of control, the T/C [10] was 97 % of control and the T/C [11] was 97 % of control.
In the case of `CNC(=O)Nc1c(C)cccc1Cl`, the T/C (dose: 100.0 mg/kg/injection, schedule: Q01DX009 (ip), vehicle: Klucel (hydroxypropylcellulose) (HPC)) is reported as 94 % of control, the T/C (dose: 200.0 mg/kg/injection, schedule: Q01DX009 (ip), vehicle: Klucel (hydroxypropylcellulose) (HPC)) is reported as 95 % of control and the T/C (dose: 400.0 mg/kg/injection, schedule: Q01DX009 (ip), vehicle: Klucel (hydroxypropylcellulose) (HPC)) is reported as 105 % of control.
`Nc1nc([Se])c2ncn(C3OC(CO)C(O)C3O)c2n1` (stereo unspecified) was tested, and the T/C (dose: 10.0 mg/kg/injection, schedule: Q01DX009 (ip), vehicle: saline) was 179 % of control, the T/C [12] was 208 % of control and 213 % of control and the T/C (dose: 20.0 mg/kg/injection, schedule: Q01DX009 (ip), vehicle: saline) was 182 % of control. The T/C [13] was 201 % of control and 229 % of control and the T/C [14] was 91 % of control.
In the case of `CC(CCN1CCOCC1)(CNC1=NCCN1)c1cccc2ccccc12` (stereo unspecified), the T/C (dose: 5.0 mg/kg/injection, schedule: Q01DX009 (ip), vehicle: saline with Tween-80) is reported as 100 % of control, the T/C (dose: 10.0 mg/kg/injection, schedule: Q01DX009 (ip), vehicle: saline with Tween-80) is reported as 96 % of control and the T/C (dose: 20.0 mg/kg/injection, schedule: Q01DX009 (ip), vehicle: saline with Tween-80) is reported as 103 % of control.
`Cc1ccc(S/N=C/c2c(O)ccc3ccccc23)cc1` was tested, and the T/C (dose: 100.0 mg/kg/injection, schedule: Q04DX002 (ip), vehicle: other) was 91 % of control, the T/C (dose: 200.0 mg/kg/injection, schedule: Q04DX002 (ip), vehicle: other) was 102 % of control and the T/C (dose: 400.0 mg/kg/injection, schedule: Q04DX002 (ip), vehicle: other) was 94 % of control.
With `CC(Cl)CNC(=O)Nc1cccc2c1CCCC2` (stereo unspecified) the T/C [6] was 103 % of control, the T/C [8] was 100 % of control and the T/C [1] was 96 % of control. For the same compound, the T/C [10] was 94 % of control, the T/C [2] was 95 % of control and the T/C [15] was 91 % of control. For the same compound, the T/C [3] was 90 % of control.
In the case of `C=CCCCCCCCC[CH2][Sn]([Cl])([Cl])[Cl]`, the T/C (dose: 50.0 mg/kg/injection, schedule: Q04DX003 (ip), vehicle: saline) is reported as 93 % of control and the T/C (dose: 100.0 mg/kg/injection, schedule: Q04DX003 (ip), vehicle: saline) is reported as 101 % of control.
For `CCCCCCCCCCCCCCOc1ccc(C(=O)CC(=O)OC)cc1`, the T/C (dose: 100.0 mg/kg/injection, schedule: Q04DX003 (ip), vehicle: Klucel (hydroxypropylcellulose) (HPC)) was 90 % of control, the T/C (dose: 200.0 mg/kg/injection, schedule: Q04DX003 (ip), vehicle: Klucel (hydroxypropylcellulose) (HPC)) was 98 % of control and the T/C (dose: 400.0 mg/kg/injection, schedule: Q04DX003 (ip), vehicle: Klucel (hydroxypropylcellulose) (HPC)) was 90 % of control.
In the case of `CN1CCN(CCN2CCN(CCCN3c4ccccc4Sc4ccc(Cl)cc43)CC2)C1=O`, the T/C (dose: 100.0 mg/kg/injection, schedule: Q01DX001 (ip), vehicle: carboxymethylcellulose (CMC)) is reported as 104 % of control.
`CC1CN1P(=O)(N1CC1C)N1CC1C.CC1CN1P(=O)(N1CC1C)N1CC1C.CC1CN1P(=O)(N1CC1C)N1CC1C.CC1CN1P(=O)(N1CC1C)N1CC1C.[Cu+2].[O-][Cl+3]([O-])([O-])O` (stereo unspecified) was tested, and the T/C [13] was 111 % of control, the T/C (dose: 25.0 mg/kg/injection, schedule: Q04DX002 (ip), vehicle: saline) was 108 % of control and the T/C [14] was 119 % of control. The T/C (dose: 50.0 mg/kg/injection, schedule: Q04DX002 (ip), vehicle: saline) was 102 % of control, the T/C [5] was 92 % of control and the T/C (dose: 100.0 mg/kg/injection, schedule: Q04DX002 (ip), vehicle: saline) was 108 % of control and 119 % of control.
For `Cc1cc([N+](C)(C)C)cc(C)c1C#[N+][O-]`, the T/C (dose: 1.25 mg/kg/injection, schedule: Q01DX001 (ip), vehicle: saline) was 104 % of control, the T/C (dose: 2.5 mg/kg/injection, schedule: Q01DX001 (ip), vehicle: saline) was 93 % of control and the T/C (dose: 5.0 mg/kg/injection, schedule: Q01DX001 (ip), vehicle: saline) was 102 % of control. For the same compound, the T/C [4] was 102 % of control.
In the case of `CC(=O)c1ccc(N2C(=O)C=CC2=O)cc1`, the T/C (dose: 25.0 mg/kg/injection, schedule: Q04DX003 (ip), vehicle: Klucel (hydroxypropylcellulose) (HPC)) is reported as 114 % of control and the T/C (dose: 50.0 mg/kg/injection, schedule: Q04DX003 (ip), vehicle: Klucel (hydroxypropylcellulose) (HPC)) is reported as 115 % of control.
In the case of `CCOC(=O)C1(CCCBr)CCCCC1=O` (stereo unspecified), the T/C [8] is reported as 107 % of control, the T/C [10] is reported as 102 % of control and the T/C [15] is reported as 104 % of control.
In the case of `CN1CCC(C=C2c3ccccc3CCc3ccccc32)C1` (stereo unspecified), the T/C (dose: 3.12 mg/kg/injection, schedule: Q01DX009 (ip), vehicle: saline) is reported as 100 % of control, the T/C (dose: 6.25 mg/kg/injection, schedule: Q01DX009 (ip), vehicle: saline) is reported as 92 % of control and the T/C [12] is reported as 100 % of control. The T/C [13] was 98 % of control.
For `CC(=O)CCC(=O)OC(C)(C)CN`, the T/C (dose: 50.0 mg/kg/injection, schedule: Q01DX009 (ip), vehicle: saline with Tween-80) was 102 % of control, the T/C [7] was 99 % of control and the T/C [1] was 103 % of control. The T/C [9] was 87 % of control, the T/C [2] was 107 % of control and the T/C [11] was 91 % of control. The T/C [3] was 103 % of control and the T/C [16] was 96 % of control.
`CCN(C(=O)Nc1cccc(Cl)c1)c1ccccc1` was tested, and the T/C [1] was 90 % of control, the T/C [9] was 96 % of control and the T/C [2] was 90 % of control. The T/C [11] was 97 % of control, the T/C [3] was 86 % of control and the T/C [16] was 97 % of control.
